The text below walks through data of patent US9040019B2, “Methods of detecting myelin basic protein” (General Electric Company, priority 2012, dated 2015).

In series [1] the test system is sciatic nerve tissue sections. In words: Ex vivo binding of nerve labelling agents to sciatic nerve tissue sections (fluorescence microscopy). The settings on record: 10 μM or 20 μM agent, 1 hour incubation, compared to control tissue without agent. Details: species or system male Sprague Dawley (SD) rats. Here is the method:
For ex vivo histological evaluation, various nerves including sciatic, femoral and trigeminal were harvested from male Sprague Dawley (SD) rats. Tissue was fixed by perfusion and/or post-fixed with formalin. Nerves were then flash-frozen using methanol and dry ice in OCT media. In some cases, polyvinylidene fluoride membranes were used to help keep the nerves vertical in the OCT media. Thin sections (5-10 microns) were sliced on a Leica microtome and stored in a −80° C. freezer prior to staining with antibodies or fluorescent dyes.
Nerve sections were prepared as described above. At the time of staining the slides were removed from −80° C. and allowed to come to room temperature. The nerves were fixed in neutral buffered formalin (10%) for 5 min after which the slides were rinsed in 1×PBS (3×, 5 min/each). 10 μM, or 20 μM each Formula II, Formula III, Formula IV, Formula V, or Formula VI was added onto the tissue in a formulation containing 10% Cremophor EL and 60% rat serum made in 1×PBS. The slides were incubated for 1 hour in a dark, moist/humid chamber at room temperature after which they were washed 3 times for 5 min/each in 1×PBS, cover-slipped, and imaged using the appropriate filter cube on a Zeiss Axioimager at 200× magnification.

Series [2] can be described thus: Measurement of optical properties of the agents (absorbance and fluorescence emission). It is filed as physicochemical. The conditions noted are these: in DMSO; for Absorbance Maximum / Emission Maximum / Stoke shift: nerve labeling agents; for Abs (maximal absorbance wavelength) / Em (maximal fluorescence emission wavelength): compounds lacking nerve binding. How it is done:
The flurophores were dissolved in dimethylsulfoxide (DMSO) to make a 10 mM stock solution. An aliquot was taken to prepare a 10-100 μM flurophore solution in methanol, water, or DMSO. Optical measurements from the three solvents were taken. Absorbance spectra were measured using a PerkinElmer Lambda™ 20 UV/VIS spectrometer (PerkinElmer, Waltham, Mass.). Emission spectra were generated using a PTI steady state fluorimeter (Photon Technology International, Birmingham, N.H.). The stoke shift for nerve labeling agents on Table 3 are greater than 100 nm.

For the next series, the system named is nerves. The experiment in a line: Pre-clinical fluorescence in vivo imaging of nerves in a large rodent model. Set-up: species or system Sprague Dawley (SD) rat. The settings on record: 0.5 hours post injection. How it is done: (§1) All procedures were approved by the Institutional Animal Care and Use Committee (IACUC) at GE Global Research. Male CD-1 mice ranging in body weight from 25-30 g and SD rats (250-350 g) were purchased from Charles River Laboratories (Wilmington, Mass.) and housed at 22-23° C. on a 12-hour light/dark cycle. On the day of the experiment, rodents were anesthetized using 2-4% isofluorane and given a single tail vein injection of either imaging agent in formulation or formulation excipients alone. […]
(§2) In vivo imaging consisted of detailed fluorescence emission characterization and surgical imaging using a Zeiss Lumar™ imaging system (Carl Zeiss Inc. Thornwood, N.Y.) with coupled multispectral imaging camera (Nuance camera; CRI, Woburn, Mass.) or AxioCam™ (Carl Zeiss Inc. Thornwood, N.Y.). […] A variety of excitation filters were used to characterize the in vivo fluorescence of these agents. […] Fluorescence emission data was then recorded at wavelengths ranging from 420 to 720 nm at 10 nm steps using the attached CRI-Nuance™ camera (Cambridge Research and Instrumentation Inc., Wobur, Mass.) or using a 500 nm-long pass filter on the AxioCam. Fluorescence images were collected using exposure times of 5 seconds in both control and agent injected animals for normalization. […]

Series [3] relates to nerve, muscle, and adipose tissue. In words: Kinetics of clearance, tissue fluorescence after IV injection. It is filed as in vivo, adult male CD-1 mice. The settings on record: 3.33 mg/kg IV; 0.5, 1, 2 and 3 hours post injection. Here is the method: as §1, §2

Structures are written as SMILES.

Turning to `CC1=CC(=C(C#N)C#N)C=C(/C=C/c2ccc(N(CCO)CCO)cc2)O1` [III], the “Ex vivo binding to sciatic nerve tissue sections (fluorescence signal)” value (from here on “Ex vivo binding”) in series [1] is reported as “fluorescence signal is evident”.
As for `COc1cc(/C=C/C2=CC(=C(C#N)C#N)C=C(C)O2)ccc1N` [Formula VI], in series [2], the “Absorbance Maximum” value is reported as 478 nm, the “Emission Maximum” value is 631 nm and the Stoke shift worked out at 153 nm.
Consider `COc1cc(/C=C/C2=CC(=C(C#N)C#N)C=C(C)O2)ccc1NCc1ccc(N)cc1` [Formula IV], for which, in series [2], the “Absorbance Maximum” value is on record as 492 nm, the “Emission Maximum” value was 642 nm and the Stoke shift amounted to 150 nm.
As for `CC1(C)OC(=O)C(C#N)=C1/C=C/c1ccc(N(CCO)CCO)cc1` [C], in series [2], the “Abs (maximal absorbance wavelength)” value was determined as 505 nm and the “Em (maximal fluorescence emission wavelength)” value was 591 nm.
Regarding `CC1=CC(=C(C#N)C#N)C=C(/C=C/c2ccc(N(CCO)CCO)cc2)O1` [Formula III], in series [2], the “Absorbance Maximum” value was 491 nm, the “Emission Maximum” value was 623 nm and the Stoke shift worked out at 132 nm.
In the case of `CC1=CC(=C(C#N)C#N)C=C(/C=C/c2ccc(NCCO)cc2)O1` [V], the “Ex vivo binding” value in series [1] was “fluorescence signal is evident”.
Turning to `CC1(C)OC(=O)C(C#N)=C1/C=C/c1ccc(NCCO)cc1` [B], in series [2], the “Abs (maximal absorbance wavelength)” value came out at 494 nm and the “Em (maximal fluorescence emission wavelength)” value was 578 nm.
Take `COc1cc(/C=C/C2=CC(=C(C#N)C#N)C=C(C)O2)ccc1NCc1ccc(N)cc1` [IV]: the “Ex vivo binding” value in series [1] is “fluorescence signal is evident”.
In the case of `CC1=CC(=C(C#N)C#N)C=C(/C=C/c2ccc(N)cc2)O1` [Formula II], the “Nerve visibility in fluorescence imaging” value in the series on nerves (8.33 mg/kg IV) is “Visible nerves present”. For the same compound, the “Nerve visibility in fluorescence imaging” value with nerves (16.67 mg/kg IV) is listed as “Visible nerves present”. Further, in series [3], the “Maximum tissue-specific fluorescence intensity over time post injection (nerve, muscle, adipose tissue)” value is reported as “decreases with increasing time post injection”. Also, in series [2], the “Absorbance Maximum” value was found to be 478 nm, the “Emission Maximum” value came out at 607 nm and the Stoke shift is 129 nm. In addition, the “Ex vivo binding” value in series [1] is on record as “fluorescence signal is evident”.
Consider `CC1(C)OC(=C(C#N)C#N)C(C#N)=C1/C=C/c1ccc(N)cc1` [D], for which, in series [2], the “Abs (maximal absorbance wavelength)” value is on record as 574 nm and the “Em (maximal fluorescence emission wavelength)” value came out at 621 nm.
For `CC1=CC(=C(C#N)C#N)C=C(/C=C/c2ccc(NCCO)cc2)O1` [Formula V], in series [2], the “Absorbance Maximum” value is listed as 484 nm, the “Emission Maximum” value is 618 nm and the Stoke shift came out at 134 nm.
On to `COc1cc(/C=C/C2=CC(=C(C#N)C#N)C=C(C)O2)ccc1N` [VI], for which the “Ex vivo binding” value in series [1] was “fluorescence signal is evident”.
Take `CC1(C)OC(=O)C(C#N)=C1/C=C/c1ccc(N)cc1` [A]: in series [2], the “Abs (maximal absorbance wavelength)” value is listed as 480 nm and the “Em (maximal fluorescence emission wavelength)” value is on record as 562 nm.
In the case of `CC1(C)OC(=C(C#N)C#N)C(C#N)=C1/C=C/c1ccc(NCCO)cc1` [E], in series [2], the “Abs (maximal absorbance wavelength)” value came to 590 nm and the “Em (maximal fluorescence emission wavelength)” value is 636 nm.
In the same order, the values of `CC1(C)OC(=C(C#N)C#N)C(C#N)=C1/C=C/c1ccc(N(CCO)CCO)cc1` [F] are 596 nm and 656 nm.
